Source: paper PMC10523091, “Stereo/regio-selective access to substituted 3-hydroxy-oxindoles with anti-proliferative assessment and in silico validation” (RSC Advances, 2023)
Like-named read-outs stand apart in the source and are kept apart here.

How the values were obtained:
OVCAR 10 = experiment: MTS cell viability assay, OVCAR 10; format: cell-based; details: for SI OVCAR10: SI = (IC50 for normal cell line FHC)/(IC50 for OVCAR10)
Description: (§1) The newly synthesized compounds were subjected to assessment for their potential to inhibit the proliferation of various cancer cell lines including colorectal carcinoma (HCT116), ovarian cancer (OVCAR 10), and human metastatic melanoma (1205Lu), and non-cancerous fetal human cells (FHC). […] In order to ascertain whether compound 4j is selectively cytotoxic or anti-proliferative to cancer cells, it was tested for non-cancerous fetal human cells (FHC).
(§2) HCT116, OVCAR 10, 1205Lu, and FHC cell lines were procured from American Type Culture Collection (ATCC, Manassas, VA, USA). All the cells were grown based on the recommendations by ATCC at 37 °C in a humidified atmosphere with CO2. Stock solutions of compounds were made up and delivered to cells in DMSO.
(§3) The cell viability assay was performed as described earlier[27] HCT116, OVCAR 10, 1205Lu, and FHC adherent cell lines were seeded in 96-well plate at a density of 5 × 10^3 cells per well. Next day, the cells were treated with the respective compounds at different doses for 48 h in triplicates. At the end of the treatment duration, the media were removed and fresh media were added containing 20 μL of [3-(4,5-dimethylthiazol-2-yl)-5-(3-carboxymethoxyphenyl)-2-(4-sulfophenyl)-2H-tetrazolium] (MTS) reagent per well (Promega, WI, USA). The optical densities of the solubilized formazan crystals were read with a 96-well multi-scanner (Dynex Technologies, MRX Revelation; Chantilly, VA, USA) at 490 nm and 630 nm, and the normalized percent viability was calculated. The IC50 values were calculated using non-linear regression (curve fit).

1205Lu = experiment: MTS cell viability assay, 1205Lu; format: cell-based, human; details: for SI 1205Lu: SI = (IC50 for normal cell line FHC)/(IC50 for 1205Lu)
Description: as §1, §2, §3

FHC = experiment: MTS cell viability assay, non-cancerous FHC; format: cell-based; details: 48 h treatment, non-cancerous fetal human cells, read-out: IC50 (μM) ± SD FHC
Description: as §1, §2, §3

HCT116 = experiment: MTS cell viability assay, HCT116; format: cell-based; details: for SI HCT116: SI = (IC50 for normal cell line FHC)/(IC50 for HCT116)
Description: as §1, §2, §3

HCT-116 cells [1] = experiment: Annexin V/7-AAD apoptosis assay; format: cell-based; details: 10 μM
Description: (§4) We further carried out apoptosis experiments utilizing the caspase-3/7 7-AAD and Annexin V/7-AAD assays to evaluate the mode of cell death.
(§5) The apoptosis assay using Muse Annexin V/7-AAD and Caspase 3/7 7-AAD assay kit (EMD Millipore, Darmstadt, Germany) was performed following manufacturer's protocol as described earlier.[28] Briefly, the cells were seeded in 6-well plate at a density of 1 × 10^5 cells per well. After 24 h incubation, the cells were treated with 10 μM of compound 4j. The cells were incubated for 24 and 48 h. At the end of the treatment period, the cells were harvested using enzyme free cell dissociation buffer. The samples were treated with the respective dyes based on the manufacturer's protocol. The samples were further analysed in Muse Cell Analyzer (Merck Millipore, Darmstadt, Germany).

HCT-116 cells [2] = experiment: Caspase 3/7 7-AAD apoptosis assay; format: cell-based; details: 10 μM
Description: as §4, §5

[3] = MTS assay, 48 h treatment, ovarian cancer, read-out: IC50 (μM) ± SD OVCAR 10
[4] = repeated in docking table, unit inferred, read-out: IC50 OVCAR10
[5] = 1205Lu, MTS assay, 48 h treatment, human metastatic melanoma, read-out: IC50 (μM) ± SD 1205Lu
[6] = Homo sapiens, 1205Lu, repeated in docking table, unit inferred, read-out: IC50 1205Lu
[7] = Homo sapiens, HCT-116, MTS assay, 48 h treatment, colorectal carcinoma, read-out: IC50 (μM) ± SD HCT116
[8] = Homo sapiens, HCT-116, repeated in docking table, unit inferred, read-out: IC50 HCT116

O=c1[nH]cc(F)c(=O)[nH]1 [Compound 5-FU, 5-fluorouracil, reference compound]
IC50 (OVCAR 10; [3]): 22.4 ± 4.1 µM | SI OVCAR10 (OVCAR 10): 0.95 | IC50 (OVCAR 10; [4]): 22.4 µM | IC50 (1205Lu; [5]): 15.4 ± 2.9 µM | IC50 (1205Lu; [6]): 15.4 µM | SI 1205Lu (1205Lu): 1.38 | IC50 (FHC; FHC): 21.3 ± 4.2 µM | IC50 (HCT116; [7]): 22.3 ± 1.7 µM | IC50 (HCT116; [8]): 22.3 µM | SI HCT116 (HCT116): 0.95

N.N.[Cl][Pt][Cl] [Cisplatin, cisplatin, reference compound]
IC50 (OVCAR 10; [3]): 18.2 ± 2.5 µM | SI OVCAR10 (OVCAR 10): 1.37 | IC50 (1205Lu; MTS assay, 48 h treatment, human metastatic melanoma, read-out: IC50 (μM) ± SD 1205Lu): 19 ± 1.5 µM | SI 1205Lu (1205Lu): 1.3 | IC50 (FHC): 25.1 ± 3.2 µM | IC50 (HCT116; MTS assay, 48 h treatment, colorectal carcinoma, read-out: IC50 (μM) ± SD HCT116): 12.1 ± 2.5 µM | SI HCT116 (HCT116): 2.07

O=C1Nc2ccccc2C1(O)CN1CCCCC1 (stereo not shown) [Compound 4n, 3-Hydroxy-3-(piperidin-1-ylmethyl)indolin-2-one]
IC50 (OVCAR 10; [3]): 112 ± 21.3 µM | IC50 (1205Lu; [5]): 109 ± 24.7 µM | melting point: 154 to 156 °C | IC50 (FHC; FHC): 96.8 ± 18.5 µM | IC50 (HCT116; [7]): 105 ± 23.3 µM

O=C1N(Cc2ccccc2)c2c(Br)cc(Br)cc2C1(O)CN1CCCCC1 (stereo not shown) [Compound 4k, 1-Benzyl-5,7-dibromo-3-hydroxy-3-(piperidin-1ylmethyl)indolin-2-one]
IC50 (OVCAR 10; [3]): 91.2 ± 18.7 µM | IC50 (OVCAR 10; [4]): 91.2 µM | IC50 (1205Lu; [5]): 89.9 ± 16.8 µM | IC50 (1205Lu; [6]): 89.9 µM | melting point: 170 to 172 °C | IC50 (FHC; FHC): 88.6 ± 20.3 µM | IC50 (HCT116; [7]): 110 ± 24.4 µM | IC50 (HCT116; [8]): 110 µM

O=C1N(Cc2ccccc2)c2ccc(Cl)cc2C1(O)CN1CCCCC1 (stereo not shown) [Compound 4h]
IC50 (OVCAR 10; [3]): 130 ± 17.2 µM | IC50 (1205Lu; [5]): 110 ± 18.4 µM | IC50 (FHC; FHC): 106 ± 17.2 µM | IC50 (HCT116; [7]): 117 ± 19.6 µM

O=C1N(Cc2ccccc2)c2c(Br)cc(Br)cc2C1(O)CN1CCOCC1 (stereo not shown) [Compound 4j, 1-Benzyl-5,7-dibromo-3-hydroxy-3-(morpholinomethyl)indolin-2-one]
IC50 (OVCAR 10; [3]): 8.56 ± 1.1 µM | SI OVCAR10 (OVCAR 10): 2.40 | IC50 (OVCAR 10; [4]): 8.56 µM | IC50 (1205Lu; [5]): 12.2 ± 1.7 µM | IC50 (1205Lu; [6]): 12.2 µM | SI 1205Lu (1205Lu): 1.68 | apoptotic cells, Annexin V/7-AAD (HCT-116 cells [1]; 24 h): 19.5% | apoptotic cells, Annexin V/7-AAD (HCT-116 cells [1]; 48 h): 46.15% | apoptotic cell population, Caspase 3/7 7-AAD (HCT-116 cells [2]; 24 h): 21.5% | apoptotic cell population, Caspase 3/7 7-AAD (HCT-116 cells [2]; 48 h): 57.9% | IC50 (FHC; FHC): 20.6 ± 3.1 µM | IC50 (HCT116; [7]): 9.63 ± 1.3 µM | IC50 (HCT116; [8]): 9.63 µM | SI HCT116 (HCT116): 2.12

O=C1Nc2ccccc2C1(O)CN1CCCC1 (stereo not shown) [Compound 4o, 3-Hydroxy-3-(pyrrolidin-1-ylmethyl)indolin-2-one]
IC50 (OVCAR 10; [3]): 116 ± 11.8 µM | IC50 (1205Lu; [5]): 130 ± 14 µM | IC50 (FHC; FHC): 95.7 ± 13 µM | IC50 (HCT116; [7]): 102 ± 18.7 µM

O=C1N(Cc2ccccc2)c2ccccc2C1(O)CN1CCOCC1 (stereo not shown) [Compound 4a, 1-Benzyl-3-hydroxy-3-(morpholinomethyl)indolin-2-one]
IC50 (OVCAR 10; [3]): 120 ± 15.4 µM | IC50 (1205Lu; [5]): 111 ± 18.9 µM | IC50 (FHC; FHC): 122 ± 13.2 µM | IC50 (HCT116; [7]): 104 ± 25 µM

O=C1N(Cc2ccccc2)c2ccccc2C1(O)CN1CCCCC1 (stereo not shown) [Compound 4b, 1-Benzyl-3-hydroxy-3-(piperidin-1-ylmethyl)indolin-2-one]
IC50 (OVCAR 10; [3]): 69.2 ± 16.2 µM | IC50 (1205Lu; [5]): 65.3 ± 15.3 µM | IC50 (FHC; FHC): 63.5 ± 22.2 µM | IC50 (HCT116; [7]): 85.2 ± 15.3 µM

O=C1N(Cc2ccccc2)c2ccccc2C1(O)CN1CCCC1 (stereo not shown) [Compound 4c, 1-Benzyl-3-hydroxy-3-(pyrrolidin-1-ylmethyl)indolin-2-one]
IC50 (OVCAR 10; [3]): 61.2 ± 13.2 µM | IC50 (1205Lu; [5]): 78.2 ± 24 µM | melting point: 169 to 171 °C | IC50 (FHC; FHC): 76.3 ± 14.5 µM | IC50 (HCT116; [7]): 65.9 ± 16.7 µM

O=C1N(Cc2ccccc2)c2ccc(Br)cc2C1(O)CN1CCCCC1 (stereo not shown) [Compound 4e, 1-Benzyl-5-bromo-3-hydroxy-3-(piperidin-1-ylmethyl)indolin-2-one]
IC50 (OVCAR 10; [3]): 93.1 ± 15.6 µM | IC50 (1205Lu; [5]): 98 ± 13.2 µM | melting point: 189 to 191 °C | IC50 (FHC; FHC): 88.3 ± 16.9 µM | IC50 (HCT116; [7]): 92.2 ± 17.2 µM

O=C1N(Cc2ccccc2)c2ccc(Cl)cc2C1(O)CN1CCCC1 (stereo not shown) [Compound 4i, 1-Benzyl-5-chloro-3-hydroxy-3-(pyrrolidin-1-ylmethyl)indolin-2-one]
IC50 (OVCAR 10; [3]): 81.5 ± 12.5 µM | IC50 (1205Lu; [5]): 96.4 ± 18.8 µM | melting point: 121 to 124 °C | IC50 (FHC; FHC): 96.5 ± 22.2 µM | IC50 (HCT116; [7]): 93.4 ± 19.3 µM

O=C1N(Cc2ccccc2)c2c(Br)cc(Br)cc2C1(O)CN1CCCC1 (stereo not shown) [Compound 4l]
IC50 (OVCAR 10; [3]): 94.3 ± 18 µM | IC50 (1205Lu; [5]): 91.6 ± 18.3 µM | IC50 (FHC; FHC): 94.8 ± 15.3 µM | IC50 (HCT116; [7]): 91.5 ± 26.9 µM

O=C1N(Cc2ccccc2)c2ccc(Br)cc2C1(O)CN1CCOCC1 (stereo not shown) [Compound 4d, 1-Benzyl-5-bromo-3-hydroxy-3-(morpholinomethyl)indolin-2-one]
IC50 (OVCAR 10; [3]): 87.9 ± 13 µM | IC50 (1205Lu; [5]): 81.2 ± 15.1 µM | IC50 (FHC; FHC): 73.2 ± 19.6 µM | IC50 (HCT116; [7]): 84.1 ± 19.4 µM

O=C1N(Cc2ccccc2)c2ccc(Br)cc2C1(O)CN1CCCC1 (stereo not shown) [Compound 4f, 1-Benzyl-5-bromo-3-hydroxy-3-(pyrrolidin-1-ylmethyl)indolin-2-one]
IC50 (OVCAR 10; [3]): 88.5 ± 18.9 µM | IC50 (1205Lu; [5]): 85.6 ± 13.2 µM | melting point: 144 to 146 °C | IC50 (FHC; FHC): 81.3 ± 15.6 µM | IC50 (HCT116; [7]): 85.3 ± 16 µM

O=C1N(Cc2ccccc2)c2ccc(Cl)cc2C1(O)CN1CCOCC1 (stereo not shown) [Compound 4g, 1-Benzyl-5-chloro-3-hydroxy-3-(morpholinomethyl)indolin-2-one]
IC50 (OVCAR 10; [3]): 112 ± 11.7 µM | IC50 (1205Lu; [5]): 125 ± 19.8 µM | melting point: 191 to 193 °C | IC50 (FHC; FHC): 121 ± 21.2 µM | IC50 (HCT116; [7]): 121 ± 17.1 µM

O=C1Nc2ccccc2C1(O)CN1CCOCC1 (stereo not shown) [Compound 4m, 3-Hydroxy-3-(morpholinomethyl)indolin-2-one]
IC50 (OVCAR 10; [3]): 92.3 ± 18.2 µM | IC50 (1205Lu; [5]): 99.7 ± 11.5 µM | IC50 (FHC; FHC): 89.4 ± 14.6 µM | IC50 (HCT116; [7]): 95.4 ± 9.66 µM
